Measurements as given in publication PMC2784992 (Nature chemical biology, 2009).

Test system: Plasmodium falciparum lines, progeny, field isolates and transfected parasites
Details: 0.8 µM verapamil with DHMS

## COc1ccc(CCN(C)CCCC(C#N)(c2ccc(OC)c(OC)c2)C(C)C)cc1OC (stereo not shown) [verapamil]
  effect on parasite response to 1: did not have any effect
